# Test results published in ChEMBL document CHEMBL5260832, “Hepatoprotective natural triterpenoids” (Eur J Med Chem, 2018).
# What was measured:
# Hepatocyte [1] = assay: Hepatoprotective activity against D-GaIN/TNFalpha-induced cell death in mouse hepatocyte at 100 uM relative to control; format: functional, cell-based; settings: dose 100 µM
# Hepatocyte [2] = assay: Hepatoprotective activity against D-GaIN/TNFalpha-induced cell death in mouse hepatocyte at 50 uM relative to control; format: functional
# Hepatocyte [3] = assay: Hepatoprotective activity against D-GaIN/TNFalpha-induced cell death in mouse hepatocyte at 200 uM relative to control; format: functional
# Hepatocyte [4] = assay: Hepatoprotective activity against D-GaIN/TNFalpha-induced cell death in mouse hepatocyte at 25 uM relative to control; format: functional
# L02 = assay: Hepatoprotective activity against D-GaIN-induced in human HL7702 cells assessed as cell damage at 10 uM relative to control; format: functional
# HepG2 [5] = assay: Hepatoprotective activity against H2O2-induced cell death in human HepG2 cells assessed as reduction in ALT level at 20 uM preincubated for 1 hr followed by H2O2-stimulation and measured after 24 hrs; format: functional
# HepG2 [6] = assay: Hepatoprotective activity against H2O2-induced cell death in human HepG2 cells assessed as reduction in AST level at 20 uM preincubated for 1 hr followed by H2O2-stimulation and measured after 24 hrs; format: functional
# HepG2 [7] = assay: Hepatoprotective activity against H2O2-induced human HepG2 cells assessed as increase in ALT level; format: functional
# HepG2 [8] = assay: Hepatoprotective activity against H2O2-induced human HepG2 cells assessed as increase in AST level; format: functional
# [9] = Hepatotoxicity in rat assessed as reduction in GPT level at 1.0 mg/mL measured after 48 hrs (reference value: 291 IU/L); format: toxicity; settings: in vivo
# [10] = Hepatotoxicity in rat assessed as reduction in GPT level at 0.01 mg/mL measured after 48 hrs (reference value: 291 IU/L); format: toxicity; settings: in vivo
# Hepatocyte [11] = assay: Hepatoprotective activity against H2O2-induced cell damage in rat hepatocyte assessed as reduction in cell growth; format: functional, cell-based
# [12] = Cytotoxicity against human HepG2 cells assessed as reduction in cell viability by SRB assay; format: toxicity, cell-based
# Mus musculus [13] = assay: Hepatoprotective activity against D-GaIN/LPS induced liver injury mouse model assessed as reduction in sAST at 100 mg/kg, ip relative to control; format: functional; design: scale not given: the % may be the effect or the level left
# Mus musculus [14] = assay: Hepatoprotective activity against D-GaIN/LPS induced liver injury mouse model assessed as reduction in sALT at 100 mg/kg, ip relative to control; format: functional; design: scale not given: the % may be the effect or the level left
# Mus musculus [15] = species on record: Mus musculus; assay: Hepatoprotective activity against D-GaIN/LPS induced liver injury mouse model assessed as increase in sAST relative to control; format: functional
# Mus musculus [16] = species on record: Mus musculus; assay: Hepatoprotective activity against D-GaIN/LPS induced liver injury mouse model assessed as increase in sALT relative to control; format: functional
# [17] = Hepatotoxicity in D-GaIN induced Wistar rat assessed as change in GTP leakage level for 10 days relative to control; format: toxicity; settings: in vivo, 240 h, time 10 day
# [18] = Hepatotoxicity in D-GaIN induced Wistar rat assessed as change in induction of TAT level for 10 days relative to control; format: toxicity; design: concentration or dose not given beside the values; settings: in vivo, 240 h, time 10 day
# Mus musculus [19] = species on record: Mus musculus; assay: Hepatoprotective activity in mouse liver homogenate assessed as inhibition of iron/ascorbate lipid peroxidation at 5.0 mg/mL relative to control; format: functional; design: scale not given: the % may be the effect or the level left
# Mus musculus [20] = species on record: Mus musculus; assay: Hepatoprotective activity in mouse liver homogenate assessed as inhibition of iron/ascorbate lipid peroxidation at 0.1 mg/mL relative to control; format: functional; design: scale not given: the % may be the effect or the level left
structure (smiles),measurement,setting,value
C[C@@]1(CO)CC[C@]2(C(=O)O[C@@H]3O[C@H](CO)[C@@H](O)[C@H](O)[C@H]3O)CC[C@]3(C)[C@H](C=C[C@@H]4[C@@]5(C)C[C@@H](O)[C@H](O)[C@@](C)(CO)[C@@H]5CC[C@]43C)[C@H]2C1,Activity,Hepatocyte [1],8%
same,Activity,Hepatocyte [2],8%
same,Activity,Hepatocyte [3],8%
same,Activity,Hepatocyte [4],15.1%
CC(C)=CCC[C@H](C(=O)O)[C@@H]1CC[C@]2(C)C3=C(CC[C@@]12C)[C@@]1(C)CC[C@@H](O)C(C)(C)[C@@H]1CC3,Activity,L02,30.1%
CC(C)=CCC[C@H](C(=O)O)[C@@H]1CC[C@]2(C)C3=C(CC[C@@]12C)[C@@]1(C)CC[C@H](O)C(C)(C)[C@@H]1CC3,Activity,L02,50.5%
C=C(C)[C@@H]1C[C@H](O)C2=C(C(=O)C[C@]3(C)[C@@H]([C@H](C)CCC(=O)O)CC[C@@]23C)[C@@]1(C)CCC(=O)OC,Activity,HepG2 [5],16.06 U/L
same,Activity,HepG2 [6],19.09 U/L
CC1(C)CC[C@]2(C(=O)O)CC[C@]3(C)[C@H](C=C[C@@H]4[C@@]5(C)C[C@@H](O)[C@H](O)[C@@](C)(CO)[C@@H]5CC[C@]43C)[C@H]2[C@@H]1O,Activity,Hepatocyte [1],8%
same,Activity,Hepatocyte [2],8%
same,Activity,Hepatocyte [3],8%
CC(C)=C[C@H]1C[C@@H]([C@@H]2CC[C@]3(C)C4=CC(=O)[C@H]5C(C)(C)[C@H](O)CC[C@]5(C)[C@H]4CC[C@@]23C)C(=O)O1,Activity,L02,30.4%
CC1(C)CC[C@]2(C(=O)O[C@@H]3O[C@H](CO)[C@@H](O)[C@H](O)[C@H]3O)CC[C@]3(C)[C@H](C=C[C@@H]4[C@@]5(C)C[C@@H](O)[C@H](O)[C@@](C)(CO)[C@@H]5CC[C@]43C)[C@H]2[C@@H]1O,Activity,Hepatocyte [1],8%
same,Activity,Hepatocyte [2],8%
same,Activity,Hepatocyte [3],8%
CC1(C)CC[C@]2(C(=O)O)CC[C@]3(C)[C@H](C=C[C@@H]4[C@@]5(C)C[C@@H](O)[C@H](O)[C@](C)(CO)[C@@H]5CC[C@]43C)[C@H]2C1,Activity,Hepatocyte [1],108.4%
same,Activity,Hepatocyte [4],15.4%
CC(C)=CCC[C@H](C(=O)O)[C@@H]1CC[C@]2(C)C3=C(CC[C@@]12C)[C@@]1(C)CCC(=O)C(C)(C)[C@@H]1CC3=O,Activity,L02,25.6%
C/C(=C\CC[C@@H](C)[C@H]1CC[C@@]2(C)C3=CC[C@H]4C(C)(C)[C@@H](O)CC[C@]4(C)C3=CC[C@]12C)CO [GANODEROL B],Activity,HepG2 [7],18.97 U/L
same,Activity,HepG2 [8],26.42 U/L
CC1(C)CC[C@]2(C(=O)O[C@@H]3O[C@H](CO)[C@@H](O)[C@H](O)[C@H]3O)CC[C@]3(C)C(=CC[C@@H]4[C@@]5(C)CC[C@H](O[C@@H]6O[C@H](CO)[C@@H](O)[C@H](O)[C@H]6O)C(C)(C(=O)O)[C@@H]5CC[C@]43C)[C@@H]2C1 (stereo partly specified),Activity,[9],279 IU/L
same,Activity,[10],271 IU/L
CC(C)=CC[C@@H](O)[C@@H](C)[C@H]1CC[C@@]2(C)C3=CC[C@H]4C(C)(C)[C@@H](O)CC[C@]4(C)C3=CC[C@]12C,Activity,HepG2 [5],23.22 U/L
same,Activity,HepG2 [6],32.36 U/L
CC1=C[C@]2(C=C([C@H]3CC[C@@]4(C)[C@@H]5CC[C@H]6C(C)(C)C(=O)C=C[C@@]67C[C@@]57CC[C@]34C)C(=O)N2)OC1=O,EC50,Hepatocyte [11],126 µM
CC1=C[C@@]2(C[C@H]([C@H]3CC[C@@]4(C)[C@@H]5CC[C@H]6C(C)(C)[C@@H](O)C=C[C@@]67C[C@@]57CC[C@]34C)[C@H](O)O2)OC1=O,EC50,[12],37.9 µM
CC(=O)[C@H]1CC(=O)[C@@]2(C)C3=C(C(=O)C[C@]12C)[C@@]1(C)CC[C@H](O)C(C)(C)[C@@H]1C[C@@H]3O [LUCIDONE A],Activity,HepG2 [7],17.46 U/L
same,Activity,HepG2 [8],21.18 U/L
CC(C)=CCC[C@](C)(O)C1CC[C@]2(C)[C@@H]1[C@H](O[C@H]1O[C@@H](CO[C@H]3OC[C@H](O)[C@@H](O)[C@@H]3O)[C@H](O)[C@@H](O)[C@@H]1O)C[C@@H]1[C@@]3(C)CC[C@H](O[C@@H]4O[C@H](CO)[C@@H](O)[C@H](O)[C@H]4O[C@@H]4O[C@H](CO)[C@@H](O)[C@H](O)[C@H]4O)C[C@@H]3CC[C@]12C (stereo partly specified),Activity,Mus musculus [13],40%
same,Activity,Mus musculus [14],33%
same,Activity,Mus musculus [15],40%
same,Activity,Mus musculus [16],33%
COC(=O)C(C)[C@@H](O)C(=O)C[C@@H](C)[C@H]1C[C@H](O)[C@@]2(C)[C@@H]3C(=O)C[C@H]4C(C)(C)[C@@H](O)CC[C@]4(C)[C@H]3C(=O)C[C@]12C (stereo partly specified),Activity,HepG2 [7],18.51 U/L
same,Activity,HepG2 [8],19.5 U/L
CC1=C[C@@]2(C[C@H]([C@H]3CC[C@@]4(C)[C@@H]5CC[C@H]6C(C)(C)[C@@H](O)C=C[C@@]67C[C@@]57CC[C@]34C)[C@@H](O)O2)OC1=O,EC50,[12],123 µM
CC1(C)CC[C@]2(C(=O)O)CC[C@]3(C)[C@H](C=C[C@@H]4[C@@]5(C)C[C@@H](O)[C@H](O)C(C)(C)[C@@H]5CC[C@]43C)[C@H]2[C@@H]1O,Activity,Hepatocyte [1],32.9%
same,Activity,Hepatocyte [4],15.4%
CC(=O)N[C@@H](CS)C(=O)O [ACETYLCYSTEINE],EC50,Hepatocyte [11],106 µM
CC1(C)CC[C@]2(C(=O)O)CC[C@]3(C)[C@H](C=C[C@@H]4[C@@]5(C)C[C@@H](O)[C@H](O)C(C)(C)[C@@H]5[C@H](O)C[C@]43C)[C@H]2[C@@H]1O,Activity,Hepatocyte [1],24.4%
same,Activity,Hepatocyte [4],15.4%
C[C@@]1(CO)CC[C@]2(C(=O)O[C@@H]3O[C@H](CO[C@@H]4O[C@H](CO)[C@@H](O)[C@H](O)[C@H]4O)[C@@H](O)[C@H](O[C@@H]4O[C@H](CO)[C@@H](O)[C@H](O)[C@H]4O)[C@H]3O)CC[C@]3(C)C(=CC[C@@H]4[C@@]5(C)CC[C@H](O[C@@H]6O[C@H](CO)[C@@H](O)[C@H](O)[C@H]6O)[C@@](C)(C(=O)O)[C@@H]5CC[C@]43C)[C@@H]2C1,Activity,[10],253 IU/L
CC(C)=CCC[C@](C)(O)C1CC[C@]2(C)[C@@H]1[C@H](O[C@H]1O[C@@H](CO[C@H]3O[C@@H](CO)[C@H](O)[C@@H](O)[C@@H]3O)[C@H](O)[C@@H](O)[C@@H]1O)C[C@@H]1[C@@]3(C)CC[C@H](O[C@@H]4O[C@H](CO)[C@@H](O)[C@H](O)[C@H]4O[C@@H]4O[C@H](CO)[C@@H](O)[C@H](O)[C@H]4O)C[C@@H]3CC[C@]12C (stereo partly specified),Activity,Mus musculus [13],40%
same,Activity,Mus musculus [14],33%
C[C@H]1[C@H](C)CC[C@@]2(C)[C@@H]1C1=CC[C@@H]3[C@@]4(C)CC[C@@H](O)C(C)(C)[C@@H]4CC[C@@]3(C)[C@]1(C)C[C@@H]2O,Activity,[17],22.7%
same,Activity,[18],48%
C[C@@]1(CO)CC[C@]2(C(=O)O[C@@H]3O[C@H](CO[C@@H]4O[C@H](CO)[C@@H](O)[C@H](O)[C@H]4O)[C@@H](O)[C@H](O)[C@H]3O)CC[C@]3(C)C(=CC[C@@H]4[C@@]5(C)CC[C@H](O[C@@H]6O[C@H](CO)[C@@H](O)[C@H](O)[C@H]6O)[C@@](C)(C(=O)O)[C@@H]5CC[C@]43C)[C@@H]2C1,Activity,[10],215 IU/L
CC1=C[C@]2(C=C([C@H]3CC[C@@]4(C)[C@@H]5CC[C@H]6C(C)(C)C(=O)C=C[C@]67C[C@]57CC[C@]34C)C(=O)N2)OC1=O,EC50,Hepatocyte [11],167 µM
CC(C)=CCC[C@](C)(O)C1CC[C@]2(C)[C@@H]1[C@H](O[C@H]1O[C@@H](CO[C@@H]3O[C@@H](CO)[C@H](O)[C@H]3O)[C@H](O)[C@@H](O)[C@@H]1O)C[C@@H]1[C@@]3(C)CC[C@H](O[C@@H]4O[C@H](CO)[C@@H](O)[C@H](O)[C@H]4O[C@@H]4O[C@H](CO)[C@@H](O)[C@H](O)[C@H]4O)C[C@@H]3CC[C@]12C (stereo partly specified),Activity,Mus musculus [13],40%
same,Activity,Mus musculus [14],33%
same,Activity,Mus musculus [15],87%
same,Activity,Mus musculus [16],89%
CC1(C)CC[C@]2(C(=O)O)CC[C@]3(C)C(=CC[C@@H]4[C@@]5(C)C[C@@H](O)[C@@H](O)C(C)(C)[C@@H]5CC[C@]43C)[C@@H]2C1,Activity,Mus musculus [19],52.7%
same,Activity,Mus musculus [20],16.8%
C=C(C)[C@@H]1CC[C@]2(C(=O)O)CC[C@]3(C)[C@H](CC[C@@H]4[C@@]5(C)C[C@@H](O)[C@H](O)C(C)(C)[C@@H]5CC[C@]43C)[C@@H]12,Activity,Mus musculus [20],13.7%
C[C@H]1[C@H](C)CC[C@@]2(C)[C@@H]1C1=CC[C@@H]3[C@@]4(C)CC[C@H](O)C(C)(C)[C@@H]4CC[C@@]3(C)[C@]1(C)C[C@@H]2O,Activity,[17],46.7%
same,Activity,[18],39.8%
